Columns and labels:
[1] = target: T1, CYP3A4 (Homo sapiens, UniProt P08684); assay: Inhibition of CYP3A4 (testosterone 6β-hydroxylation) in pooled human liver microsomes; format: in vitro ADME
T1 construct: CYP3A4 catalyzed reactions (testosterone 6β-hydroxylation) in pooled HLM; from tissue; host or cells: pooled human liver microsomes
Experimental: (§1) All incubations were performed in triplicate, and the mean values were utilized. The typical incubation systems contained 100 mM potassium phosphate buffer (pH 7.4), NADPH generating system (1 mM NADP^+, 10 mM glucose-6-phosphate, 1 U/mL of glucose-6-phosphate dehydrogenase, and 4 mM MgCl2), the appropriate concentration of HLMs, a corresponding probe substrate and hispidulin (or positive inhibitor for different probe reactions) in a final volume of 200 μL.
(§2) The concentration of GAA was 100 μM, and the positive inhibitor concentrations were as follows: 10 μM furafylline for CYP1A2, 1 μM ketoconazole for CYP3A4, 10 μM tranylcypromine for CYP2A6, 50 μM clomethiazole for CYP2E1, 10 μM quinidine for CYP2D6, 10 μM sulfaphenazole for CYP2C9, 50 μM tranylcypromine for CYP2C19, 5 μM montelukast for CYP2C8. Probe substrates, positive inhibitors (except for dextromethorphan and quinidine, which were dissolved in water) and GAA were dissolved in methanol, with a final concentration of 1% (v/v), and 1% neat methanol was added to the incubations without inhibitor. There was a 3 min preincubation period (at 37 °C) before the reaction was initiated by adding an NADPH-generating system. The reaction was terminated by adding a 100 μL acetonitrile (10% trichloroacetic acid for CYP2A6) internal standard mix, and the solution was placed on ice. The mixture was centrifuged at 12,000 rpm for 10 min, and an aliquot (50 μL) of supernatant was transferred for HPLC analysis. The instrument used in this study was Agilent 1260 series instrument with DAD and FLD detector, and the quantitative assay for the corresponding metabolites was performed as previously reported (Lang et al. [2017]; Zhang et al. [2017]).
(§3) GAA (100 μM) was used to initially screen for its direct inhibitory effects towards different human CYP isoforms. […]
(§4) The enzyme kinetic parameters for the probe reaction were estimated from the best fit line, using least-squares linear regression of the inverse substrate concentration versus the inverse velocity (Lineweaver-Burk plots), and the mean values were used to calculate Vmax and Km. Inhibition data from the experiments that were conducted using multiple compound concentrations were represented by Dixon plots, and inhibition constant (Ki) values were calculated using non-linear regression according to the following equation: v=(VmaxS)/(Km(1+I/Ki)+S), where I is the concentration of the compound, Ki is the inhibition constant, S is the concentration of the substrate, and Km is the substrate concentration at half the maximum velocity (Vmax) of the reaction. The mechanism of the inhibition was assessed using the Lineweaver-Burk plots and the enzyme inhibition models. […]

[2] = target: T2, CYP2D6 (Homo sapiens, UniProt P10635); assay: Inhibition of CYP2D6 (dextromethorphan O-demethylation) in pooled human liver microsomes; format: in vitro ADME
T2 construct: from tissue; host or cells: pooled human liver microsomes
T2 sequence (P10635 whole entry): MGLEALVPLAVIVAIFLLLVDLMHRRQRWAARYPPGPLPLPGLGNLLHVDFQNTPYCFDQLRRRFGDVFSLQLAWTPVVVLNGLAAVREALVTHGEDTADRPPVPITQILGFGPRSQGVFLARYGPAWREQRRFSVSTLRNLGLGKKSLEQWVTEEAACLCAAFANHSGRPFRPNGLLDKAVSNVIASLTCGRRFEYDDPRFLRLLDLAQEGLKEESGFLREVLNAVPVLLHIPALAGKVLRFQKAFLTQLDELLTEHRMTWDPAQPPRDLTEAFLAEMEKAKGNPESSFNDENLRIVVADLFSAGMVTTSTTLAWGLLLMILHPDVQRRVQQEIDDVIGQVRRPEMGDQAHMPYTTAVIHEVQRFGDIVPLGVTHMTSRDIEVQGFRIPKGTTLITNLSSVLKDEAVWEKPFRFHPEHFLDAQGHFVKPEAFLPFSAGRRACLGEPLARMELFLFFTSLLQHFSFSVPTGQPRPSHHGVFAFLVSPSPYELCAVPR
Experimental: as §1, §2, §3, §4

[3] = target: T3, CYP2E1 (Homo sapiens, UniProt P05181); assay: Inhibition of CYP2E1 (chlorzoxazone 6-hydroxylation) in pooled human liver microsomes; format: in vitro ADME
T3 construct: CYP2E1 catalyzed reactions (chlorzoxazone 6-hydroxylation) in pooled HLM; from tissue; host or cells: pooled human liver microsomes
T3 sequence (P05181 whole entry): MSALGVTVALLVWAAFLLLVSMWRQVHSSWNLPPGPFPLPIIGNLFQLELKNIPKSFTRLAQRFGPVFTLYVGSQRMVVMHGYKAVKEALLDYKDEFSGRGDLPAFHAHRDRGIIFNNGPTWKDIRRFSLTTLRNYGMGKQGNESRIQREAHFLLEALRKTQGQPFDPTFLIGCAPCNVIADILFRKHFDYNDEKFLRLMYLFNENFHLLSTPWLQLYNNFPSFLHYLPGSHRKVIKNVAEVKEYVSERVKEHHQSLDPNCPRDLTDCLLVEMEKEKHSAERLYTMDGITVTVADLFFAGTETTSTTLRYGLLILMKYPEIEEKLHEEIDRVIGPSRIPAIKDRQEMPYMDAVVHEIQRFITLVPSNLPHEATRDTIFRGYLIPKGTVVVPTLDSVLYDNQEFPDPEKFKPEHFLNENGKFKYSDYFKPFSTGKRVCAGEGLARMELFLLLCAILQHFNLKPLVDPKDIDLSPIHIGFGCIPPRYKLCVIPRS
Experimental: as §1, §2, §3, §4

[4] = test system: T4, CYP1A2; assay: Inhibition of CYP1A2 (phenacetin O-deethylation) in pooled human liver microsomes; format: in vitro ADME; details: GAA 100 μM; pooled HLM
T4 construct: to investigate the effects of GAA on different CYP isoforms in HLM; from tissue; host or cells: human liver microsomes
Experimental: as §1
as §2, with “There was a 3 min preincubation period (at 37 °C) before the reaction was initiated by adding an NADPH-generating system. The reaction was terminated by adding a 100 μL acetonitrile (10% trichloroacetic acid for CYP2A6) internal standard mix, and the solution was placed on ice. The mixture was centrifuged at 12,000 rpm for 10 min, and an aliquot (50 μL) of supernatant was transferred for HPLC analysis.” left out, “[2017]). […]” for “[2017]).”

[5] = test system: T5, CYP2A6; assay: Inhibition of CYP2A6 (coumarin 7-hydroxylation) in pooled human liver microsomes; format: in vitro ADME; details: GAA 100 μM; pooled HLM
T5 construct: from tissue; host or cells: human liver microsomes
Experimental: as §1
as §2, with “There was a 3 min preincubation period (at 37 °C) before the reaction was initiated by adding an NADPH-generating system. The reaction was terminated by adding a 100 μL acetonitrile (10% trichloroacetic acid for CYP2A6) internal standard mix, and the solution was placed on ice. The mixture was centrifuged at 12,000 rpm for 10 min, and an aliquot (50 μL) of supernatant was transferred for HPLC analysis.” left out, “[2017]). […]” for “[2017]).”

[6] = test system: T6, CYP2C9; assay: Inhibition of CYP2C9 (diclofenac 4′-hydroxylation) in pooled human liver microsomes; format: in vitro ADME; details: GAA 100 μM; pooled HLM
T6 construct: from tissue; host or cells: human liver microsomes
Experimental: as §1
as §2, with “There was a 3 min preincubation period (at 37 °C) before the reaction was initiated by adding an NADPH-generating system. The reaction was terminated by adding a 100 μL acetonitrile (10% trichloroacetic acid for CYP2A6) internal standard mix, and the solution was placed on ice. The mixture was centrifuged at 12,000 rpm for 10 min, and an aliquot (50 μL) of supernatant was transferred for HPLC analysis.” left out, “[2017]). […]” for “[2017]).”

[7] = test system: T7, CYP2C19; assay: Inhibition of CYP2C19 (S-mephenytoin 4-hydroxylation) in pooled human liver microsomes; format: in vitro ADME; details: GAA 100 μM; pooled HLM
T7 construct: from tissue; host or cells: human liver microsomes
Experimental: as §1
as §2, with “There was a 3 min preincubation period (at 37 °C) before the reaction was initiated by adding an NADPH-generating system. The reaction was terminated by adding a 100 μL acetonitrile (10% trichloroacetic acid for CYP2A6) internal standard mix, and the solution was placed on ice. The mixture was centrifuged at 12,000 rpm for 10 min, and an aliquot (50 μL) of supernatant was transferred for HPLC analysis.” left out, “[2017]). […]” for “[2017]).”

[8] = test system: T8, CYP2C8; assay: Inhibition of CYP2C8 (paclitaxel 6α-hydroxylation) in pooled human liver microsomes; format: in vitro ADME; details: GAA 100 μM; pooled HLM
T8 construct: from tissue; host or cells: human liver microsomes
Experimental: as §1
as §2, with “There was a 3 min preincubation period (at 37 °C) before the reaction was initiated by adding an NADPH-generating system. The reaction was terminated by adding a 100 μL acetonitrile (10% trichloroacetic acid for CYP2A6) internal standard mix, and the solution was placed on ice. The mixture was centrifuged at 12,000 rpm for 10 min, and an aliquot (50 μL) of supernatant was transferred for HPLC analysis.” left out, “[2017]). […]” for “[2017]).”

[9] = target: T1, CYP3A4; assay: Time-dependent inhibition study, CYP3A4 in human liver microsomes; format: in vitro ADME
Experimental: (§5) To determine whether GAA could inhibit the activity of CYP3A4, 2D6, and 2E1 in a time-dependent manner, GAA (20 μM) was pre-incubated with HLMs (1 mg/mL) in the presence of an NADPH-generating system for 30 min at 37 °C. After incubation, an aliquot (20 μL) was transferred to another incubation tube (final volume 200 μL) containing an NADPH-generating system and probe substrates whose final concentrations were approximate to Km. Then, further incubations were performed to measure the residual activity. After being incubated for 10 and 30 min, the reactions were terminated by adding a 100 μL acetonitrile internal standard mix and then placed on ice; the corresponding metabolites were determined by HPLC.
To determine the KI and Kinact values for the inactivation of CYP3A4, the incubations were conducted using higher probe substrate concentrations (approximately 4-fold Km values) and various concentrations of GAA (0–50 μM) after different preincubation times (0–30 min), with a two-step incubation scheme, as described above.

[10] = target: T2, CYP2D6; assay: Time-dependent inhibition study, CYP2D6 in human liver microsomes; format: in vitro ADME; details: GAA 20 μM pre-incubated with HLMs and NADPH for 30 min
Experimental: as §5

[11] = target: T3, CYP2E1; assay: Time-dependent inhibition study, CYP2E1 in human liver microsomes; format: in vitro ADME; details: GAA 20 μM pre-incubated with HLMs and NADPH for 30 min
Experimental: as §5

[12] = parameters: method as in Teekachunhatean et al. [2012]; Tseng et al. [2014]; details: after oral administration of 3000 mg Lingzhi; ref Teekachunhatean et al. [2012]; Tseng et al. [2014]; cited from earlier work

T1 sequence (P08684 whole entry): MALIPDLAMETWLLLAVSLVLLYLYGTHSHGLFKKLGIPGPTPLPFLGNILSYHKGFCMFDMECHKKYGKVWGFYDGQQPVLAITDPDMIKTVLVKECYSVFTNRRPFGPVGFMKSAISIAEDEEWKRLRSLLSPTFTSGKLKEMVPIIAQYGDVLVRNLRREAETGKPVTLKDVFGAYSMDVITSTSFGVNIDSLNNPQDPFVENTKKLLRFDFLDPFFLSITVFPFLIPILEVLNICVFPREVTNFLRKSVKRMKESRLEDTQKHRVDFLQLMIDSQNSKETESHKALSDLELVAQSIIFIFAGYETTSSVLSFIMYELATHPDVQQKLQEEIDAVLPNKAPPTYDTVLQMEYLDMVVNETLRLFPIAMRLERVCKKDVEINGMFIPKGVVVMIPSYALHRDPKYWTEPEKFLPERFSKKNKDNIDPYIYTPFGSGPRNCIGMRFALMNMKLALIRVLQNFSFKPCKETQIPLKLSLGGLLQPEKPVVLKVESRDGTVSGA

C[C@H](CC(=O)C[C@@H](C)[C@H]1C[C@H](O)[C@@]2(C)C3=C(C(=O)C[C@]12C)[C@@]1(C)CCC(=O)C(C)(C)[C@@H]1C[C@@H]3O)C(=O)O [GAA, Ganoderic acid A]
IC50 [1]: 15 µM | Ki [1]: 7.16 µM | activity of CYP3A4, % of negative control ([1]; GAA 100 μM, pooled HLM, testosterone 6β-hydroxylation, remaining activity): 14.6% | inhibition model of CYP3A4 ([1]; Lineweaver-Burk plots): non-competitive | IC50 [2]: 21.8 µM | Ki [2]: 10.1 µM | activity of CYP2D6, % of negative control ([2]; GAA 100 μM, pooled HLM, dextromethorphan O-demethylation, remaining activity): 18.2% | inhibition model of CYP2D6 ([2]; Lineweaver-Burk plots): competitively | IC50 [3]: 28.3 µM | Ki [3]: 13.4 µM | activity of CYP2E1, % of negative control ([3]; GAA 100 μM, pooled HLM, chlorzoxazone 6-hydroxylation, remaining activity): 27.7% | inhibition model of CYP2E1 ([3]; Lineweaver-Burk plots): competitively | effect on the activity of CYP1A2 [4]: did not exert effect | effect on the activity of CYP2A6 [5]: did not exert effect | effect on the activity of CYP2C9 [6]: did not exert effect | effect on the activity of CYP2C19 [7]: did not exert effect | effect on the activity of CYP2C8 [8]: did not exert effect | time dependence of inhibition of CYP3A4 ([9]; GAA 20 μM pre-incubated with HLMs and NADPH for 30 min): time-dependent | CYP3A4 inactivated every minute ([9]; concluded from the value of Kinact, GAA incubated with HLM): about 4.8% | time dependence of inhibition of CYP2D6 [10]: stable with incubation time | time dependence of inhibition of CYP2E1 [11]: stable with incubation time | maximum concentration in plasma of GAA [12]: 2.24 to 10.99 ng/mL

Reference: article PMC7178866, “In vitro inhibitory effects of ganoderic acid A on human liver cytochrome P450 enzymes” (Pharmaceutical Biology, 2020)
